The text below walks through data of patent publication US12090163B2, “Pharmaceutical compositions” (CIPLA LIMITED, priority 2017, dated 2024).

The term EC50 denotes the concentration needed to bring the measured effect to its halfway point. A lower EC50 goes with higher potency in that assay. The CC50 is the concentration that lowers cell viability or growth by half. Read a low CC50 as harm at low concentration.

Assay type in all cases: cell-based
For series [1], the system named is HIV-1 isolate JV-1083. Briefly: In vitro efficacy against HIV-1 in fresh PBMCs (reverse transcriptase activity in supernatant), isolate JV-1083. As to the method:
(§1) Fresh human PBMCs, seronegative for HIV and HBV, were isolated from screened donors (Biological Specialty Corporation, Colmar, PA). Cells were pelleted/washed 2-3 times by low speed centrifugation and re-suspension in PBS to remove contaminating platelets. The Leukophoresed blood was then diluted 1:1 with Dulbecco's Phosphate Buffered Saline (DPBS) and layered over 15 mL of Ficoll (GE Healthcare #17-1440-02) in 50 mL centrifuge tube and then centrifuged for 30 minutes at 600×g. Banded PBMCs were gently aspirated from the resulting interface and subsequently washed 2× with PBS by low speed centrifugation. After the final wash, cells were enumerated by tryptan blue exclusion and re-suspended at 1×10^6 cells/mL in RPMI 1640 supplemented with 15% Fetal Bovine Serum (FBS), and 2 mM L-glutamine, 4 μg/mL Phytohemagglutinin (PHA, Sigma). The cells were allowed to incubate for 48-72 hours at 37° C. After incubation, PBMCs were centrifuged and re-suspended in RPMI 1640 with 15% FBS, 2 mM L-glutamine, 100 U/mL penicillin, 100 μg/mL streptomycin, and approximately 100-150 U/mL recombinant human IL-2 (R&D Systems, Inc). IL-2 was included in the culture medium to maintain the cell division initiated by the PHA mitogenic stimulation. PBMCs were maintained in this medium at a concentration of 1-2×10^6 cells/mL with biweekly medium changes until used in the assay protocol. Cells were kept in culture for a maximum of two weeks before being deemed too old for use in assays and discarded. MDMs were depleted from the culture as the result of adherence to the tissue culture flask. […] Pooling (mixing) of mononuclear cells from more than one donor was used to minimize the variability observed between individual donors, which results from quantitative and qualitative differences in HIV infection and overall response to the PHA and IL-2 of primary lymphocyte populations. […]

In series [2] the test system is HIV-1 isolate 89BZ_167. Briefly: In vitro efficacy against HIV-1 in fresh PBMCs (reverse transcriptase activity in supernatant), isolate 89BZ_167. The method, then: as §1, with “C.” for “C. After incubation, PBMCs were centrifuged and re-suspended in RPMI 1640 with 15% FBS, 2 mM L-glutamine, 100 U/mL penicillin, 100 μg/mL streptomycin, and approximately 100-150 U/mL recombinant human IL-2 (R&D Systems, Inc). IL-2 was included in the culture medium to maintain the cell division initiated by the PHA mitogenic stimulation. PBMCs were maintained in this medium at a concentration of 1-2×10^6 cells/mL with biweekly medium changes until used in the assay protocol. Cells were kept in culture for a maximum of two weeks before being deemed too old for use in assays and discarded. MDMs were depleted from the culture as the result of adherence to the tissue culture flask.”

Series [3] can be described thus: Compound cytotoxicity in PBMC assay plates by MTS. As to conditions: human, PBMCs, listed as of isolate JV-1083. The method, then:
Fresh human PBMCs, seronegative for HIV and HBV, were isolated from screened donors (Biological Specialty Corporation, Colmar, PA). Cells were pelleted/washed 2-3 times by low speed centrifugation and re-suspension in PBS to remove contaminating platelets. The Leukophoresed blood was then diluted 1:1 with Dulbecco's Phosphate Buffered Saline (DPBS) and layered over 15 mL of Ficoll (GE Healthcare #17-1440-02) in 50 mL centrifuge tube and then centrifuged for 30 minutes at 600×g. Banded PBMCs were gently aspirated from the resulting interface and subsequently washed 2× with PBS by low speed centrifugation. […] Pooling (mixing) of mononuclear cells from more than one donor was used to minimize the variability observed between individual donors, which results from quantitative and qualitative differences in HIV infection and overall response to the PHA and IL-2 of primary lymphocyte populations. […]
Following removal of supernatant samples, compound cytotoxicity was measured by addition of MTS to the plates for determination of cell viability. […]
At assay termination, assay plates were stained with the soluble tetrazolium-based dye MTS (CellTiter 96 Reagent, Promega) to determine cell viability and quantify compound toxicity. […] This allows the rapid quantitative analysis of cell viability and compound cytotoxicity. […]

Series [4] is described as follows: Cytotoxicity in HepG2 2.2.15 cells by MTS uptake assay. As to conditions: human, HepG2 2.2.15 cells (contain the HBV ayw1 genome), same assay plate.
The subject of series [5] is HCV replicon. Briefly: HCV replicon antiviral evaluation assay. As to the method:
(§2) The subgenomic HCV replicons of genotype 1a (H77 strain), 1b (Coni strain), and 2a (JFH-1 strain), which are Huh7 human hepatoma cell lines that contains an HCV replicon were used.
The HCV replicon antiviral evaluation assay examines the effects of compounds at six serial dilutions. Human interferon alpha-2b (rIFNα-2b) and/or Sofosbuvir were included in each run as a positive control compound.
(§3) Briefly, the replicon cells were plated at 5,000 cells/well into 96-well plates that were dedicated for the analysis of cell numbers (cytotoxicity) or antiviral activity. On the following day, samples were diluted with assay media and added to the appropriate wells. Cells were processed 72 hours later when the cells were still sub-confluent. For the luciferase endpoint assay, HCV replicon levels were assessed as replicon-derived Luc activity. The concentration of drug that reduces cell viability was assessed by the fluorometric CytoTox-1 cell proliferation assay (Promega), (expressed as cell numbers). For the qRT-PCR/TaqMan assay, total RNA was extracted from the replicon cells using RNeasy 96 kit (Qiagen) according to the manufacturer's protocol. Real-time RTPCR/TaqMan assays was performed to measure copy numbers of the replicon RNA and cellular ribosomal RNA.

Series [6] is described as follows: Cytotoxicity in HCV replicon cells (CytoTox-1 cell proliferation assay). As to conditions: human, concentration decreasing cell viability by 50%. As to the method:
as §2, §3
A general note: A replicon is a self-replicating genome or part of one, used to study replication in cells.

Structures can show the parent of a compound that is named as a salt.

Consider `C[C@H](Cn1cnc2c(N)ncnc21)OCP(=O)(OCOC(=O)C(C)(C)C)Oc1ccccc1` (stereo partly drawn) [((((((R)-1-(6-amino-9H-purin-9-yl)propan-2-yl)oxy)methyl)(phenoxy)phosphoryl)oxy)methyl pivalate fumarate], for which the “Selectivity Index” value in series [1] (HIV-1 isolate JV-1083, PBMCs) was determined as 11241; in series [2] (HIV-1 isolate 89BZ_167, PBMCs), 1333; in series [5] (CC50/EC50, HCV replicon cells), 5.98. Also, the EC50 was 0.00246 µM in series [1] (Human immunodeficiency virus 1, PBMC, HIV-1 isolate JV-1083, PHA-stimulated fresh human PBMCs, six-seven days); 0.0208 µM in series [2] (Human immunodeficiency virus 1, PBMC, HIV-1 isolate 89BZ_167, PHA-stimulated fresh human PBMCs, six-seven days); 8.38 µM in series [5] (Hepatitis C virus, concentration inhibiting HCV replicon by 50%, 72 hours, genotype not given). In addition, the “Conclusion: activity against HIV-1” value in series [1] (against the two HIV-1 isolates (JV-1083, 89BZ_167) in PBMCs) is reported as “potently active”. In series [3], this molecule displayed a CC50 of 27.7 µM. This molecule displayed a CC50 at 6 days in series [4] of over 100 µM. Also, in series [5] (HCV replicon assay), the “Conclusion: activity against HCV” value is recorded as “active”. The cytotoxic concentration (CC50) at 72 h in series [6] came to 50.1 µM.
